The source of these data is US7491703B2, “Tetrapeptide regulating blood glucose level in diabetes mellitus” (“Access Bioscience” CJSC, priority 2003, dated 2009).

The subject of data set [1] is rats with alloxan diabetes. Nature of the data set: Course of alloxan diabetes in rats, prophylaxis and treatment variant (Example 3). Type of data set: in vivo, rat. The protocol: The experiment was carried out on 15 white mongrel male rats with the average body weight 375±35 g. The animals were divided randomly into 2 groups. Control animals were administered once a day intravenously with 0.3 ml of 0.9% NaCl solution, while the main group animals were administered with Lys-Glu-Asp-Trp-NH2 [SEQ ID NO:1] tetrapeptide in dose of 3 μg (in 0.3 ml of 0.9% NaCl solution) per rat during 7 days. After that all the animals were subject to single intravenous administration of 1 ml of alloxan solution (“Spofa”) in dose 35 mg/kg. Lys-Glu-Asp-Trp-NH2 [SEQ ID NO:1] tetrapeptide had been administered during 3 days following alloxan administration. After that […] were subject to the second Lys-Glu-Asp-Trp-NH2 [SEQ ID NO:1] tetrapeptide course from 18 day till day 28 (total 11 days) in the same dose.

Data set [2] relates to rats with alloxan diabetes. The data set is described as follows: Insulin effect on blood glucose level in alloxan diabetes rats after tetrapeptide course (Example 7). Type of data set: in vivo, rat. As to the method: The study was conducted on 13 male rats, enrolled in the previous trial (treatment variant—28 days after completion of Lys-Glu-Asp-Trp-NH2 [SEQ ID NO:1] tetrapeptide administration). 8 healthy rats of the similar body weight constituted a separate group. All the animals were administered intravenously with insulin (0.3 units) and glucose concentration in their blood was estimated hereafter.

Data set [3] in a line: Toxicity (experimentally proved).

Residues, ends and D or L forms follow the SMILES beside them.

For the compound `NCCCC[C@H](N)C(=O)N[C@@H](CCC(=O)O)C(=O)N[C@@H](CC(=O)O)C(=O)N[C@@H](Cc1c[nH]c2ccccc12)C(N)=O` [Lys-Glu-Asp-Trp-NH2, lysyl-glutamyl-aspartyl-tryptophane amid] (H-KEDW-NH2), the survived animals in data set [1] (40th day after alloxan administration (control 57.1%)) is given as 75%. In addition, the “Glucose Concentration in blood” value was determined as 247.3 ± 17.2 mg % in data set [1] (5 days after alloxan administration); 94.0 ± 0.8 mg % in data set [1] (7 days from the onset of tetrapeptide administration (1 course, 3 μg per rat), healthy rats before alloxan); 261.5 ± 39.5 mg % in data set [1] (14 days after alloxan administration); 159.0 ± 32.6 mg % in data set [1] (18 days after alloxan administration (start of 2nd course)); 77.3 ± 1.3 mg % in data set [1] (28 days after alloxan administration (end of 2nd course)); 90.7 ± 5.2 mg % in data set [1] (33 days after alloxan administration). Moreover, the “Glucose Concentration in blood” value is recorded as 107.7 ± 6.4 mg % in data set [1] (40 days after alloxan administration); 76.8 ± 1.1 mg % in data set [1] (initial level, before peptide); 123.6 ± 8.3 mg % in data set [2] (30 minutes after insulin administration (0.3 units i.v.)); 221.5 ± 11.2 mg % in data set [2] (initial level, 28 days after course completion). Moreover, the “effect on blood glucose level” value in data set [1] (administration to healthy animals) is given as “did not lead to the decrease of blood glucose level”. Moreover, the “decrease of blood glucose level as compared to the controls” value in data set [1] (after one course) is given as 22-30%. Moreover, the blood glucose level entry in data set [1] (after the second course, 28th, 33rd, 40th day) is “complete normalisation of the blood glucose level”. Also, the “rats with severe form of diabetes mellitus” value in data set [1] (control: 5 rats out of 7) is 2 rats out of 8. In addition, the “Decrease in glucose content with respect to initial level” value in data set [2] (30 minutes after insulin administration) came to 44.2%. In addition, the “decrease of the glucose level after insulin administration as compared to the control group” value in data set [2] (rat, in vivo) is “two-fold”. The toxicity result in data set [3] was “non-toxic”.
